In patent US20230085307A1, “PYRIDAZINONE COMPOUND AND HERBICIDE” (NISSAN CHEMICAL CORPORATION, priority 2019, published 2023):

System: barnyard grass
Assay: Test Example 3: herbicidal effect by foliage application, Wagner pot (Table 18, symbol H)
Assay type: in vivo, barnyard grass (Echinochloa crus-galli)
Details: 320 g/ha
In short: (§1)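 Plants were sown in alluvial soil held under 0.1–0.5 cm standing water and grown 14 days in a greenhouse at 25–30 °C. An emulsifiable formulation, water-diluted to the set dose, was then sprayed onto the foliage, and effects were scored three weeks later using previously defined criteria.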

Row | SMILES | herbicidal effect on barnyard grass (H)
1 | CCCC(=O)Oc1c(C)nn(C)c(=O)c1-c1c(-c2ccc(OC)cc2)sc2cc(Cl)c(Cl)cc12 [5-044] | 3 (Herbicidal rate of 40% or more and less than 70%)
2 | Cc1nn(C)c(=O)c(-c2c(-c3ccc(C(F)(F)F)cc3)sc3cc(Cl)c(Cl)cc23)c1O [5-047] | 3 (Herbicidal rate of 40% or more and less than 70%)

System: Chinese sprangletop
Assay: Test Example 3: herbicidal effect by foliage application, Wagner pot (Table 18, symbol D)
Assay type: in vivo, chinese sprangletop (Leptochloa chinensis)
Details: 320 g/ha
In short: as §1

Row | SMILES | herbicidal effect on Chinese sprangletop (D)
3 | CCCC(=O)Oc1c(C)nn(C)c(=O)c1-c1c(-c2ccc(OC)cc2)sc2cc(Cl)c(Cl)cc12 [5-044] | 3 (Herbicidal rate of 40% or more and less than 70%)
4 | Cc1nn(C)c(=O)c(-c2c(-c3ccc(C(F)(F)F)cc3)sc3cc(Cl)c(Cl)cc23)c1O [5-047] | 0 (Herbicidal rate of 5% or less (almost no effect))

System: rice flat sedge
Assay: Test Example 3: herbicidal effect by foliage application, Wagner pot (Table 18, symbol E)
Assay type: in vivo, rice flat sedge (Cyperus iria)
Details: 320 g/ha
In short: as §1

Row | SMILES | herbicidal effect on rice flat sedge (E)
5 | CCCC(=O)Oc1c(C)nn(C)c(=O)c1-c1c(-c2ccc(OC)cc2)sc2cc(Cl)c(Cl)cc12 [5-044] | 3 (Herbicidal rate of 40% or more and less than 70%)
6 | Cc1nn(C)c(=O)c(-c2c(-c3ccc(C(F)(F)F)cc3)sc3cc(Cl)c(Cl)cc23)c1O [5-047] | 0 (Herbicidal rate of 5% or less (almost no effect))

System: southern crabgrass
Assay: Test Example 5: herbicidal effect by foliage application, plastic box (Table 20, symbol F)
Assay type: in vivo, southern crabgrass (Digitaria ciliaris)
Details: amount of applied herbicide 320 g/ha; foliage application after 14-day growth; evaluated three weeks after application
In short: (§2)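 Sow seeds spot-wise in sterilized diluvial soil; cover with ~1.5 cm soil. Grow 14 days in greenhouse, 25° C. to 30° C. Spray foliage with emulsion diluted to predetermined amount. Rate effect after 3 weeks.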

Row | SMILES | Herbicidal effect by foliage application, F: southern crabgrass
7 | CCCC(=O)Oc1c(C)nn(C)c(=O)c1-c1c(-c2ccc(OC)cc2)sc2cc(Cl)c(Cl)cc12 [5-044] | 0 (Herbicidal rate of 5% or less (almost no effect))
8 | Cc1nn(C)c(=O)c(-c2c(-c3ccc(C(F)(F)F)cc3)sc3cc(Cl)c(Cl)cc23)c1O [5-047] | 0 (Herbicidal rate of 5% or less (almost no effect))

System: green foxtail
Assay: Test Example 5: herbicidal effect by foliage application, plastic box (Table 20, symbol G)
Assay type: in vivo, green foxtail (Setaria viridis)
Details: amount of applied herbicide 320 g/ha; foliage application after 14-day growth; evaluated three weeks after application
In short: as §2

Row | SMILES | Herbicidal effect by foliage application, G: green foxtail
9 | CCCC(=O)Oc1c(C)nn(C)c(=O)c1-c1c(-c2ccc(OC)cc2)sc2cc(Cl)c(Cl)cc12 [5-044] | 0 (Herbicidal rate of 5% or less (almost no effect))
10 | Cc1nn(C)c(=O)c(-c2c(-c3ccc(C(F)(F)F)cc3)sc3cc(Cl)c(Cl)cc23)c1O [5-047] | 0 (Herbicidal rate of 5% or less (almost no effect))

System: barnyard grass
Assay: Test Example 5: herbicidal effect by foliage application, plastic box (Table 20, symbol H)
Assay type: in vivo, barnyard grass (Echinochloa crus-galli)
Details: amount of applied herbicide 320 g/ha; foliage application after 14-day growth; evaluated three weeks after application
In short: as §2

Row | SMILES | Herbicidal effect by foliage application, H: barnyard grass
11 | CCCC(=O)Oc1c(C)nn(C)c(=O)c1-c1c(-c2ccc(OC)cc2)sc2cc(Cl)c(Cl)cc12 [5-044] | 0 (Herbicidal rate of 5% or less (almost no effect))
12 | Cc1nn(C)c(=O)c(-c2c(-c3ccc(C(F)(F)F)cc3)sc3cc(Cl)c(Cl)cc23)c1O [5-047] | 0 (Herbicidal rate of 5% or less (almost no effect))

System: wild oat
Assay: Test Example 5: herbicidal effect by foliage application, plastic box (Table 20, symbol I)
Assay type: in vivo, wild oat (Avena fatua)
Details: amount of applied herbicide 320 g/ha; foliage application after 14-day growth; evaluated three weeks after application
In short: as §2

Row | SMILES | Herbicidal effect by foliage application, I: wild oat
13 | CCCC(=O)Oc1c(C)nn(C)c(=O)c1-c1c(-c2ccc(OC)cc2)sc2cc(Cl)c(Cl)cc12 [5-044] | 0 (Herbicidal rate of 5% or less (almost no effect))
14 | Cc1nn(C)c(=O)c(-c2c(-c3ccc(C(F)(F)F)cc3)sc3cc(Cl)c(Cl)cc23)c1O [5-047] | 0 (Herbicidal rate of 5% or less (almost no effect))

System: blackgrass
Assay: Test Example 5: herbicidal effect by foliage application, plastic box (Table 20, symbol J)
Assay type: in vivo, blackgrass (Alopecurus myosuroides)
Details: amount of applied herbicide 320 g/ha; foliage application after 14-day growth; evaluated three weeks after application
In short: as §2

Row | SMILES | Herbicidal effect by foliage application, J: blackgrass
15 | CCCC(=O)Oc1c(C)nn(C)c(=O)c1-c1c(-c2ccc(OC)cc2)sc2cc(Cl)c(Cl)cc12 [5-044] | 0 (Herbicidal rate of 5% or less (almost no effect))
16 | Cc1nn(C)c(=O)c(-c2c(-c3ccc(C(F)(F)F)cc3)sc3cc(Cl)c(Cl)cc23)c1O [5-047] | 0 (Herbicidal rate of 5% or less (almost no effect))

System: Italian ryegrass
Assay: Test Example 5: herbicidal effect by foliage application, plastic box (Table 20, symbol K)
Assay type: in vivo, Italian ryegrass (Lolium multiflorum)
Details: amount of applied herbicide 320 g/ha; foliage application after 14-day growth; evaluated three weeks after application
In short: as §2

Row | SMILES | Herbicidal effect by foliage application, K: Italian ryegrass
17 | CCCC(=O)Oc1c(C)nn(C)c(=O)c1-c1c(-c2ccc(OC)cc2)sc2cc(Cl)c(Cl)cc12 [5-044] | 0 (Herbicidal rate of 5% or less (almost no effect))
18 | Cc1nn(C)c(=O)c(-c2c(-c3ccc(C(F)(F)F)cc3)sc3cc(Cl)c(Cl)cc23)c1O [5-047] | 0 (Herbicidal rate of 5% or less (almost no effect))

System: windgrass
Assay: Test Example 5: herbicidal effect by foliage application, plastic box (Table 20, symbol L)
Assay type: in vivo, windgrass (Apera spica-venti)
Details: amount of applied herbicide 320 g/ha; foliage application after 14-day growth; evaluated three weeks after application
In short: as §2

Row | SMILES | Herbicidal effect by foliage application, L: windgrass
19 | CCCC(=O)Oc1c(C)nn(C)c(=O)c1-c1c(-c2ccc(OC)cc2)sc2cc(Cl)c(Cl)cc12 [5-044] | 0 (Herbicidal rate of 5% or less (almost no effect))
20 | Cc1nn(C)c(=O)c(-c2c(-c3ccc(C(F)(F)F)cc3)sc3cc(Cl)c(Cl)cc23)c1O [5-047] | 2 (Herbicidal rate of 20% or more and less than 40%)

System: velvetleaf
Assay: Test Example 5: herbicidal effect by foliage application, plastic box (Table 20, symbol M)
Assay type: in vivo, velvetleaf (Abutilon theophrasti)
Details: amount of applied herbicide 320 g/ha; foliage application after 14-day growth; evaluated three weeks after application
In short: as §2

Row | SMILES | Herbicidal effect by foliage application, M: velvetleaf
21 | CCCC(=O)Oc1c(C)nn(C)c(=O)c1-c1c(-c2ccc(OC)cc2)sc2cc(Cl)c(Cl)cc12 [5-044] | 1 (Herbicidal rate of 5% or more and less than 20%)
22 | Cc1nn(C)c(=O)c(-c2c(-c3ccc(C(F)(F)F)cc3)sc3cc(Cl)c(Cl)cc23)c1O [5-047] | 0 (Herbicidal rate of 5% or less (almost no effect))

System: redroot pigweed
Assay: Test Example 5: herbicidal effect by foliage application, plastic box (Table 20, symbol N)
Assay type: in vivo, redroot pigweed (Amaranthus retroflexus)
Details: amount of applied herbicide 320 g/ha; foliage application after 14-day growth; evaluated three weeks after application
In short: as §2

Row | SMILES | Herbicidal effect by foliage application, N: redroot pigweed
23 | CCCC(=O)Oc1c(C)nn(C)c(=O)c1-c1c(-c2ccc(OC)cc2)sc2cc(Cl)c(Cl)cc12 [5-044] | 0 (Herbicidal rate of 5% or less (almost no effect))
24 | Cc1nn(C)c(=O)c(-c2c(-c3ccc(C(F)(F)F)cc3)sc3cc(Cl)c(Cl)cc23)c1O [5-047] | 3 (Herbicidal rate of 40% or more and less than 70%)

System: lambsquarters
Assay: Test Example 5: herbicidal effect by foliage application, plastic box (Table 20, symbol O)
Assay type: in vivo, lambsquarters (Chenopodium album)
Details: amount of applied herbicide 320 g/ha; foliage application after 14-day growth; evaluated three weeks after application
In short: as §2

Row | SMILES | Herbicidal effect by foliage application, O: lambsquarters
25 | CCCC(=O)Oc1c(C)nn(C)c(=O)c1-c1c(-c2ccc(OC)cc2)sc2cc(Cl)c(Cl)cc12 [5-044] | 3 (Herbicidal rate of 40% or more and less than 70%)
26 | Cc1nn(C)c(=O)c(-c2c(-c3ccc(C(F)(F)F)cc3)sc3cc(Cl)c(Cl)cc23)c1O [5-047] | 1 (Herbicidal rate of 5% or more and less than 20%)

System: chickweed
Assay: Test Example 5: herbicidal effect by foliage application, plastic box (Table 20, symbol P)
Assay type: in vivo, common chickweed (Stellaria media)
Details: amount of applied herbicide 320 g/ha; foliage application after 14-day growth; evaluated three weeks after application
In short: as §2

Row | SMILES | Herbicidal effect by foliage application, P: chickweed
27 | CCCC(=O)Oc1c(C)nn(C)c(=O)c1-c1c(-c2ccc(OC)cc2)sc2cc(Cl)c(Cl)cc12 [5-044] | 5 (Herbicidal rate of 90% or more (almost completely withered))
28 | Cc1nn(C)c(=O)c(-c2c(-c3ccc(C(F)(F)F)cc3)sc3cc(Cl)c(Cl)cc23)c1O [5-047] | 0 (Herbicidal rate of 5% or less (almost no effect))

System: persian speedwell
Assay: Test Example 5: herbicidal effect by foliage application, plastic box (Table 20, symbol R)
Assay type: in vivo, Persian speedwell (Veronica persica)
Details: amount of applied herbicide 320 g/ha; foliage application after 14-day growth; evaluated three weeks after application
In short: as §2

Row | SMILES | Herbicidal effect by foliage application, R: persian speedwell
29 | CCCC(=O)Oc1c(C)nn(C)c(=O)c1-c1c(-c2ccc(OC)cc2)sc2cc(Cl)c(Cl)cc12 [5-044] | 4 (Herbicidal rate of 70% or more and less than 90%)
30 | Cc1nn(C)c(=O)c(-c2c(-c3ccc(C(F)(F)F)cc3)sc3cc(Cl)c(Cl)cc23)c1O [5-047] | 0 (Herbicidal rate of 5% or less (almost no effect))
